The experiment concerns CaV1.2. The experiment in a line: Cell-attached single-channel recording of CaV1.2 with ectopic CaM in HEK 293T/17 cells. The experiment is classed as cell-based, rat. To be noted: 110 mM Ba2+, 0 mV from -80 mV; mean±SEM (Table S3). The procedure:
HEK 293T/17 cells (ATCC) were maintained as previously described ([15], [53]). For electrophysiology, Lipofectamine 2000 (Invitrogene) or JetPrime (Polyplus Transfection) was used to transiently transfect cells with indicated plasmid DNAs in 35 mm dishes. For biochemistry experiments, transient transfection of HEK 293T/17 cells in […] dishes was achieved using either JetPrime or, as previously described ([15], [53]), the calcium phosphate method. Cells were cotransfected with plasmids encoding the pore-forming α11.2 subunit N-terminally tagged with eCFP ([15], [53]) or mCherry ([54]) plus pGWIH-based plasmids encoding the auxiliary subunits rat β2A ([55]) and rabbit α2δ-1 ([56]) as previously described ([15], [53]). For all transfections, equimolar ratio of 1:1:1 was used for CaV1.2 channel subunits and later further optimized (JetPrime) for CaM (at ratio of 1:1:1:0.5 for α11.2:β2A:α2δ−1:CaM). Rat brain α11.2 (GenBank ID: M67515.1) N-terminally fused to eCFP was utilized as previously described ([15]). The point mutations in plasmids encoding single-residue I1654A, Y1657D (this report), and K1662E exchanges in α11.2 were generated via QuikChange II as previously described ([15], [53]) using N-terminally eCFP ([15], [53]) or mCherry tagged ([54]) rat brain α11.2 plasmid template DNAs. We studied CDI using mCherry-tagged α11.2 subunit coexpressed with the other, untagged CaV1.2 subunits and WT CaM or the calmodulin 34 mutant CaM34 (kindly provided by JP Adelman, ([8])). For some biochemical experiments shown in Fig. S2, YFP-tagged CaM was used ([32]).
Single-channel recordings were performed as described previously ([15], [31]). In brief, low noise raw data were recorded with an Axopatch 200B amplifier and data were sampled at 10 kHz with a low-pass filter at 2 kHz (3 dB, four pole Bessel) and digitalized with a Digidata 1440 digitizer. Recording electrodes were pulled from borosilicate capillary glass ([…]) with a Flaming/Brown micropipette puller (Model P-97, Sutter Instruments), heat polished, and coated with Sylgard (Sylgard 289) until close to the electrode tip. Electrode resistance in solution was usually 5 to 10 MΩ. To keep the membrane potential close to 0 mV the extracellular bath solution contained (in mM) 120 K-Glutamate, 25 KCl, 2 MgCl2, 1 CaCl2, 10 EGTA, 10 Hepes, and 2 Na2-ATP pH 7.4 (KOH). The intracellular pipette solution contained (in mM) 110 BaCl2 and 10 Hepes, adjusted to pH 7.4 (TEA-OH). Cells were depolarized for 2 s from a holding potential of -80 mV to 0 mV every 7 s. Event lists were created from raw Ba^2+ currents after leak and capacity transients were digitally subtracted by pClamp 10. Unitary current events were then analyzed based on the half-height criterium ([57]) using the single-channel software provided by pClamp 10.
For statistical analysis, single-channel parameters were corrected by the channel number (k), respectively, the maximum of simultaneously open channels (PMAX). The number of channels in the patch was estimated based on the observed simultaneous openings and is a precise parameter for k < 4, as included in this article and originally described by R. Horn ([58]). On average, 100 to 200 Ba^2+ current traces were recorded for each cell for each experimental condition for an appropriate statistical analysis.
Table S3. Effects of ectopically expressed CaM and CaM34 on CaV1.2 as determined by single channel recordings with 110 mM Ba2+. HEK 293T/17 cells were transiently transfected with eCFP-tagged rat CaV1.2, α2δ1 and β2a alone or together with WT CaM (+CaM) or CaM34 (+CaM34). Parameters were corrected for the number of channels (k) in the patch. Recordings were obtained at a test potential of 0 mV from a holding potential of -80 mV. For all parameters, statistical significance p was determined for CaV1.2 without ectopic CaM expression and for CaV1.2 plus CaM34 agains CaV1.2 plus wt CaM (one-way ANOVA followed by Bonferroni test). […]

Consider 1 substance from publication PMC9764201, “Half-calcified calmodulin promotes basal activity and inactivation of the L-type calcium channel CaV1.2” (The Journal of Biological Chemistry, 2022).

Regarding “CaV1.2: WT rat brain α11.2 with α2δ1 and β2A expressed in HEK 293T/17 cells”, the Availability turned out to be 77±7%, the IPeak was 19.7±4.0 fA, the “MEA (mean ensemble average)” value came out at 9.6±2.4 fA and the “MOT (mean open time)” value was determined as 1.2 ± 0.2 ms. The substance further came in with a Po of 2.3±0.6% and a unitary i of 0.81±0.03 pA.
